{
  "source": "patent US20080220056A1",
  "about": "“Treatment for liver disease” (UNIVERSITY OF SOUTHAMPTON, priority 2002, published 2008)",
  "key": {"[1]": {"test_system": "rat hepatocytes in comparison to rat hepatic stellate cells", "assay": "Cell attachment (protein assay): gliotoxin doses killing rat hepatocytes versus hepatic stellate cells", "format": "cell-based", "details": "attachment after four hours, in vitro", "description": "Rat hepatocytes were isolated by collagenase perfusion essentially as previously described. (Harvey et al., Biochemical J., (1998) 331:273-281). Hepatocytes were cultured as outlined for hepatic stellate cells except that they were initially seeded onto collagen coated plates in William's medium E supplemented with 10% fetal calf serum and 1 μg/mL insulin for the first 2 hours.\nCells were treated with gliotoxin dissolved in DMSO vehicle (added to medium from a 2000-fold molar concentrated stock). Control cells received DMSO vehicle only (i.e., 0.05% vol/vol). All other additions to culture medium were made from concentrated stocks dissolved in DMSO or by direct addition to culture medium. Protein contents of wells were determined using the Lowry assay (Lowry et al., J. Biol. Chem., (1951)193: 265-275).\nThe necessary doses of gliotoxin required to kill rat hepatic stellate cells and hepatocytes were compared. Culture-activated (14-day) rat hepatic stellate cells or rat hepatocytes were treated with either 0.05% (vol/vol) DMSO or 1.5 μmol/L gliotoxin and cell attachment determined by direct assay of protein in each well after four hours as outlined in Materials and Methods. The results obtained are depicted in FIG. 3A and are expressed as the mean and standard deviation percentage attachment versus DMSO control for three separate experiments."}, "[2]": {"assay": "Pilot study for gliotoxin toxicity in rats", "format": "in vivo, rat", "details": "3 mg/kg body weight"}, "[3]": {"test_system": "caspase-3 activity in hepatic stellate cells", "assay": "Caspase-3 activity in cycloheximide-treated hepatic stellate cells", "format": "cell-based", "details": "50 μM cycloheximide", "description": "Apoptosis was quantified by a colorimetric assay for caspase-3 activity (Promega) according to the manufacturer's instructions.\nCaspase-3 is a central caspase in the proapoptotic cascade (Hengartner, Nature (2000) 407, 770-776) and can be used as an alternative assay to assess apoptosis. Hepatic stellate cells were cultured in 50 μM cycloheximide with TIMP-1 at a concentration of 0, 1, 10, or 100 ng/ml. Controls where cells were incubated with either the caspase 3 inhibitor benzyloxycarbonyl-Val-Ala-Asp-fluoromethylketone or serum alone were also performed. Data are expressed as mean ±S.E. and are presented as percentage of control given the arbitrary value of 100%. * indicates p<0.001; n=3. […] Although the mean caspase-3 activity of the cells treated with 10 ng/ml TIMP-1 was slightly lower than that treated with 100 ng/ml of TIMP-1, this was not statistically significant (p=0.67 by Student's t test)."}, "Bcl-2 protein": {"test_system": "Bcl-2 protein", "assay": "Western blotting for Bcl-2 in hepatic stellate cells", "format": "cell-based", "details": "cycloheximide 18 hours with TIMP-1 (200 ng/ml and 100 ng/ml both printed) versus cycloheximide alone", "description": "Cultured hepatic stellate cells were harvested with a sterile cell scraper, pelleted by centrifugation, and then resuspended in 500 μl of TE buffer (10 mmol/Tris-HCl, 1 mmol/liter EDTA, pH 8.0) before sonication for 15 min. 100 μl of PicoGreen (Molecular Probes, Inc., Eugene, Oreg.) at 1:200 dilution was added to 100 μl of sample and incubated in the dark at room temperature for 5 min. Standards were made from herring sperm DNA. Fluorescence was measured using a Cytofluor II Microwell Fluorescence reader (Perceptive Biosystems, Framingham, Mass.) at standard wavelengths (excitation 485 nm, emission 530 nm). Concentrations of double-stranded DNA in the samples were calculated from the standard curve. […]\nThe protein Bcl-2 regulates the properties of cells to undergo apoptosis by interpolating into the mitochondria membrane (Hengartner, supra). […] To define changes in the protein level of Bcl-2, extracts from hepatic stellate cells treated with cycloheximide for 18 hours, either in the presence and absence of 200 ng/ml TIMP-1, were analyzed by western blotting. Equal quantities (determined by protein concentration) of protein extracts from hepatic stellate cells exposed to: serum alone; cycloheximide alone; or cycloheximide with TIMP-1 protein (100 ng/ml) were assessed by blotting."}, "[4]": {"test_system": "Fas and Fas ligand in human hepatic stellate cells", "assay": "Enzyme-linked immunosorbent assay for Fas and Fas ligand", "format": "cell-based", "details": "TIMP-1 142.5 ng/ml, 18 hours, serum deprivation, versus BSA alone", "description": "Human hepatic stellate cells were grown to confluence and exposed to BSA with and without TIMP-1. Cells and supernatants were harvested, and protein extracts were assayed for Fas and Fas ligand by commercial enzyme-linked immunosorbent assay following the manufacturer's instructions (Calbiochem). The quantities of Fas and Fas ligand were normalized to cell number by DNA quantification using the PicoGreen technique.\nExperiments were next performed to determine whether TIMP-1 regulated Fas ligand cleavage in human hepatic stellate cells. Hepatic stellate cells were incubated for 18 hours in conditions of absolute serum deprivation with BSA or BSA with TIMP-1 (142.5 ng/ml). The cells were extracted, and supernatants were collected. After normalizing for cell number (by DNA concentration using the PicoGreen technique), these extracts were analyzed by enzyme-linked immunosorbent assay for Fas and Fas ligand as described under Materials and Methods. […] Supernatant Fas and Fas ligand protein levels were undetectable in all experimental conditions (data not shown, n 3)."}, "[5]": {"test_system": "rat hepatic stellate cells", "assay": "Hepatic stellate cell proliferation (tritiated thymidine)", "format": "cell-based", "details": "TIMP-1 1-100 ng/ml, 24 hour incubation, versus BSA carrier", "description": "Hepatic stellate cells were cultured in 24-well tissue culture plates. These were washed with serum-free medium for 24 h, and then the cells were exposed to TIMP-1 at a concentration range of 1-100 ng/ml for 24 h and then pulsed with tritiated thymidine (0.5 μCi/well) for 18 hours before scintillation counting as previously described (Boulton et al., Clin. Sci., (1995) 88:119-130)."}},
  "data": [
    {"molecule": "CN1C(=O)[C@]23CC4=CC=C[C@H](O)[C@H]4N2C(=O)[C@@]1(CO)SS3", "note": "[gliotoxin]", "values": [
      {"measurement": "higher concentrations required to kill rat hepatocytes in comparison to rat hepatic stellate cells", "setting": "[1]", "value": "10 to 100", "unit": "fold"},
      {"measurement": "apparent ill effects", "setting": "[2]", "value": "did not cause any apparent ill effects in rats"},
      {"measurement": "hepatic damage on histologic sections of the liver", "setting": "[2]", "value": "no evidence of hepatic damage"}
    ]},
    {"molecule": "TIMP-1: recombinant tissue inhibitor of matrix metalloproteases 1 (Biogenesis)", "values": [
      {"measurement": "reduction in caspase-3 activity", "setting": "[3]; TIMP-1 10 ng/ml", "value": 50, "unit": "%"},
      {"measurement": "reduction in apoptosis measured by caspase-3 activity", "setting": "[3]; TIMP-1 100 ng/ml", "value": 50, "unit": "%"},
      {"measurement": "caspase-3 activity", "setting": "[3]; TIMP-1 1-100 ng/ml", "value": "dose-dependent reduction in caspase-3 activity"},
      {"measurement": "Bcl-2 protein expression", "setting": "Bcl-2 protein", "value": "enhanced levels of Bcl-2 protein expression"},
      {"measurement": "cellular Fas or Fas ligand protein levels", "setting": "[4]", "value": "had no effect on cellular Fas or Fas ligand protein levels"},
      {"measurement": "proliferation of rat hepatic stellate cells", "setting": "[5]", "value": "had no effect on proliferation"}
    ]}
  ]
}
